From paper PMC6514812, “[^18F]Fluoroethyltriazolyl Monocyclam Derivatives as Imaging Probes for the Chemokine Receptor CXCR4” (Molecules, 2019)
Like-named read-outs stand apart in the source and are kept apart here.

Key:
CXCR4 [1] = target: T1, CXCR4 (Homo sapiens, UniProt P61073); test: Saturation binding assay in PC3-CXCR4 cells
T1 construct: expressed in transfected cells; host or cells: PC3 (human prostate cancer) cells stably transduced with CXCR4
Description: To determine the dissociation constants, saturation binding assays were performed in the PC3-CXCR4 cells. The cells were plated as described above, and approximately 5 nM of the radioligand was added to each well. Then the corresponding non-radioactive ligand was added to give a final concentration in the range 0.001–10,000 nM. A total of eight concentrations were tested, and each concentration was tested in triplicate. The samples were washed and counted as described above. Non-specific binding was subtracted, and Kd values were determined by performing a nonlinear one site binding curve fit with equation y = (Bmax · x)/(Kd + x). Values are expressed as Kd ± standard deviation (Supplemental Data, Figure S8).

[2] = system: PC3-CXCR4 xenograft tumors; test: µPET/CT titration of tumor uptake by co-injection of AMD-3100 (block50); assay type: in vivo, BALB/c mice; conditions: co-injection of AMD-3100, µPET/CT 1 h p.i.; listed as [^18F]RPS-544
Description: All animal studies were approved by the Institutional Animal Care and Use Committee of Weill Cornell Medicine (Protocol Number: 2015-0066) and were undertaken in accordance with the guidelines set forth by the USPHS Policy on Humane Care and Use of Laboratory Animals. Animals were housed under standard conditions in approved facilities with 12 h light/dark cycles. Food and water was provided ad libitum throughout the course of the studies. Hairless 6-to-8-week old male BALB/c inbred athymic nude mice (Jackson Laboratory, Bar Harbor, ME, USA) were inoculated bilaterally with 0.2 mL of a 1:1 mixture of 10^7 PC3-CXCR4 cells in PBS and Matrigel (Corning, Tewksbury, MA, USA) subcutaneously in the left shoulder and 0.2 mL of a 1:1 mixture of 10^7 PC3-WT cells in PBS and Matrigel subcutaneously in the right shoulder. […]
For the imaging studies, the tumor-bearing mice (n = 2/compound) were injected intravenously with 100 μL of a 9% v/v EtOH/saline solution containing approximately 3.7 MBq of the radioligand. […] Tumor uptake was quantified by the following procedure: CT-aided regions of interest were drawn, and tissue concentration was determined by comparison with a 3 %ID/cm^3 standard included in the field of view. Uptake was expressed as percent injected dose per centimeter cubed (%ID/cm^3) ± standard deviation.

[3] = system: PC3-CXCR4 xenograft tumors; parameters: method as in PMID 29544122; conditions: cited from earlier work
PC3-CXCR4 cells = test: Cell-associated activity in PC3-CXCR4 cells; assay type: cell-based, human; conditions: 1 h
Description: Maximum cell-associated activity was calculated by subtracting the cell uptake of the radioactive ligand at the highest non-radioactive ligand concentration of 10 µM (which we considered to be non-specific uptake/binding) from the cell uptake at the lowest non-radioactive ligand concentration of 10^−5 µM.

CXCR4 [4] = target: T1, CXCR4; test: Competition binding assay vs [^68Ga]Pentixafor in PC3-CXCR4 cells
Description: PC3-CXCR4 cells were plated in 12-well plates at a density of 500,000 cells per well and incubated for 48 h at 37 °C/5% CO2. Prior to the binding assay the cells were incubated in fresh media and 370–555 kBq of [^68Ga]Pentixafor or [^18F]RPS-544 was added to each well. The corresponding concentration of [^68Ga]Pentixafor in each well was 100 nM, and the concentration of [^18F]RPS-544 was approximately 5 pM. Then non-radioactive ligands were added to give a final ligand concentration in the range 0.001–10,000 nM. A total of eight concentrations were studied, and each concentration was tested in triplicate. The cells were incubated for 60 min at 37 °C/5% CO2. The media was removed under suction, the cells were washed with cold PBS 1X and detached and transferred to tubes for counting in 1 M NaOH. The cells were counted in a Wizard^2 Gamma Counter (PerkinElmer, Waltham, MA, USA). Non-specific binding was subtracted, and the IC50 values were determined by assuming a simple competitive binding interaction and fitting the data to a sigmoidal Hill plot in Origin 9.0 (OriginLab, Northampton, MA, USA). Potencies are expressed as IC50 ± standard deviation (Supplemental Data, Figure S7).

T1 sequence (P61073 whole entry): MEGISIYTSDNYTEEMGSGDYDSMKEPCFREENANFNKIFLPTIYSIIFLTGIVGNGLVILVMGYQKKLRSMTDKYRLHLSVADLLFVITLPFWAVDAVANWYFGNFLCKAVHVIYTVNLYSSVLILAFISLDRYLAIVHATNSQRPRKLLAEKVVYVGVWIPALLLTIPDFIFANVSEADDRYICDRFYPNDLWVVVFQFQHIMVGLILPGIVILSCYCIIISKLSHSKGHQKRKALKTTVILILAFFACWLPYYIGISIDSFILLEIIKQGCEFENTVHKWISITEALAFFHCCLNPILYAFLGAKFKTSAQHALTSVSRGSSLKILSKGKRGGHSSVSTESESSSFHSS

## Fc1cccc(CNCc2ccc(CN3CCCNCCNCCCNCC3)cc2)n1 [RPS-544]
CXCR4 [1]; saturation binding, PC3-CXCR4 cells
  Kd: 5.1 ± 1 nM
CXCR4 [1]; value ± SD
  Hill Slope, Saturation Binding Experiment: 1.06 ± 0.11
[2]
  Block50: dose of AMD-3100 reducing uptake in PC3-CXCR4 tumors by 50%: 0.17 ± 0.06 mg/kg
[3]; 1 h p.i.
  PC3-CXCR4 Tumor-to-Tissue Ratio Blood: 2.5 ± 0.4
  PC3-CXCR4 Tumor-to-Tissue Ratio Bone: 4.2 ± 1.2
  PC3-CXCR4 Tumor-to-Tissue Ratio Kidneys: 0.1 ± 0.1
  PC3-CXCR4 Tumor-to-Tissue Ratio Liver: 0.1 ± 0.1
  PC3-CXCR4 Tumor-to-Tissue Ratio Lungs: 2.0 ± 1.2
  PC3-CXCR4 Tumor-to-Tissue Ratio Muscle: 11.1 ± 0.4
  PC3-CXCR4 Tumor-to-Tissue Ratio PC3-WT: 3.3 ± 1.3
[3]; 1 h p.i., previously published data
  PC3-CXCR4 Tumor Uptake: 3.4 ± 1.2 %ID/g
[3]; 2 h p.i.
  PC3-CXCR4 Tumor-to-Tissue Ratio Blood: 4.8 ± 0.1
  PC3-CXCR4 Tumor-to-Tissue Ratio Bone: 2.9 ± 0.3
  PC3-CXCR4 Tumor-to-Tissue Ratio Kidneys: 0.1 ± 0.1
  PC3-CXCR4 Tumor-to-Tissue Ratio Liver: 0.1 ± 0.1
  PC3-CXCR4 Tumor-to-Tissue Ratio Lungs: 1.7 ± 0.3
  PC3-CXCR4 Tumor-to-Tissue Ratio Muscle: 6.7 ± 0.2
  PC3-CXCR4 Tumor-to-Tissue Ratio PC3-WT: 2.6 ± 0.3
PC3-CXCR4 cells
  Cell-Associated Activity: 8.2 ± 0.3 %IA
CXCR4 [4]; vs 100 nM [^68Ga]Pentixafor, PC3-CXCR4 cells, 60 min 37 °C
  IC50: 6.3 ± 0.8 nM
CXCR4 [4]; vs [^68Ga]Pentixafor, value ± SD
  Hill Slope, Competitive Binding Experiment: 1.13 ± 0.47
